Source: patent US12016858B2, “Methods for the treatment of abnormal involuntary movement disorders” (AUSPEX PHARMACEUTICALS, INC., priority 2015, dated 2024)

Legend:
[1] = test system: subjects with moderate to severe drug-induced tardive dyskinesia (TD); assay: Open-label, single-arm long-term study in tardive dyskinesia; format: in vivo, human; conditions: by Week 6
Description: An open-label, single-arm study in which male and female subjects with moderate to severe drug-induced tardive dyskinesia (TD) was conducted to evaluate the safety and tolerability of long-term maintenance therapy with deutetrabenazine, and to evaluate the efficacy of long-term maintenance therapy of deutetrabenazine to reduce the severity of abnormal involuntary movements of TD. Study Design. […] Dose Regimen. Deutetrabenazine tablets were provided in dosage strengths of 6, 9, 12, 15, and 18 mg. During dose adjustment/titration, deutetrabenazine was supplied in weekly blister cards. During long-term treatment, deutetrabenazine will be supplied in 30-count bottles. Study drug were administered as follows. All treatment regimens were administered twice daily (BID) with meals, approximately 10 hours apart during the day. […] If a subject experienced a clinically significant AE attributable to deutetrabenazine, the Investigator determined if a dose reduction or suspension was necessary. […] During titration, the investigator, in consultation with the subject determined when an adequate level of dyskinesia control had been achieved. […] If a subject experienced a clinically significant AE attributable to deutetrabenazine, the investigator determined if a dose reduction or suspension was necessary. […]

[2] = Phase 1 pharmacokinetic comparison of deutetrabenazine and tetrabenazine; format: in vivo, healthy volunteer subjects; conditions: 24-mg dose of deutetrabenazine
Text: The guidance for investigators on conversion of subjects from stable doses of tetrabenazine to deutetrabenazine in the ARC-HD Switch study was designed to minimize the risk that dose conversion would result in either loss of efficacy or increased adverse events. The conversion method applied was based on modeling and simulation of Phase 1 pharmacokinetic data for deutetrabenazine and tetrabenazine. The objective of the pharmacokinetic analysis was to identify an initial dosing regimen of deutetrabenazine predicted to provide exposure at steady state of the active α and β metabolites that was less than or equal to the predicted AUC at steady state of the active alpha and beta metabolites of tetrabenazine, but with a lower Cmax.
In a Phase 1 single-center, open-label, crossover clinical trial, each of 24 healthy volunteer subjects received single doses of 25 mg of tetrabenazine and 15 mg of deutetrabenazine. […]
Subjects in the Switch cohort completed a full screening evaluation. […] The investigator, in consultation with the subject and caregiver, determined when an adequate level of chorea control had been achieved. If a subject experienced a “clinically significant” adverse event attributable to deutetrabenazine, the investigator determined if a dose reduction or suspension was necessary.

[3] = test system: subjects with chorea associated with HD; conditions: in vivo
Description: First-HD was a randomized, double-blind, placebo-controlled, parallel-group study designed to evaluate the efficacy, safety, and tolerability of deutetrabenazine in subjects with chorea associated with HD. This trial was conducted in the United States and Canada, in collaboration with the Huntington Study Group.
Subjects in First-HD were treated with deutetrabenazine or placebo, starting at 6 mg once per day and titrating weekly to doses of up to 24 mg twice per day (48 mg total maximum daily dose). A total of 90 subjects (45 in each group) were enrolled for evaluation over 13 weeks. Subjects were individually titrated to an optimal dose over up to eight weeks, received maintenance therapy at the optimal dose for four weeks, and were taken off study medication in the final week of the trial.
The primary efficacy endpoint for the study was the change from baseline to maintenance therapy (average of Week 9 and Week 12 values) in the maximal chorea score of the UHDRS. The total maximal score, or TMC, is a clinician-based, quantitative assessment of chorea in seven body regions: face, mouth/tongue, trunk, and the four extremities, with higher scores representing more severe chorea.
The total motor score (TMS) of the UHDRS was prespecified as an additional efficacy endpoint in First-HD. The TMS assesses all the motor features of HD, including items addressing characteristic motor abnormalities other than chorea, such as dystonia, gait, parkinsonism, and postural instability.
The clinical relevance of the change in the TMC score was assessed with four prespecified secondary endpoints that assessed changes from baseline to end of treatment (Week 12). These secondary endpoints were tested in a hierarchical manner: • 1. Treatment success based on patient global impression of change (PGIC); • 2. Treatment success based on clinical global impression of change (CGIC); • 3. Physical Functioning Scale of the SF-36; and • 4. Balance, as assessed by the Berg Balance Test (BBT).
The PGIC and CGIC are single-item questionnaires that ask the subject and investigator, respectively, to assess a subject's overall HD symptoms at specific visits after initiating therapy. Both assessments use a 7-point Likert Scale, with responses ranging from Very Much Worse (−3) to Very Much Improved (+3) to assess overall response to therapy.
Adverse events (AE) and their potential association with treatment were also monitored. Categories of AEs of particular focus included those known to be associated with tetrabenazine use: • Psychiatric disorders: insomnia, depression/agitated depression, abnormal dreams, agitation, anxiety, suicidal ideation, compulsions, impulsive behavior, and sleep disorders; • Nervous system disorders: somnolence, dizziness, akathisia/restlessness, cognitive disorders, drooling, dyskinesia, migraine, headache, loss of consciousness, and syncope (fainting); • General disorders: irritability, fatigue, gait disturbance, chest pain, and hangover; and • Gastrointestinal disorders: diarrhea, dry mouth, constipation, nausea, upper abdominal pain, dyspepsia, frequent bowel movements, gastrointestinal pain, vomiting, dysphagia, flatulence, and salivary hypersecretion.
In addition to AE reporting, rating scales were used to monitor for potential subclinical toxicity due to excessive monoamine depletion. […] These scales applied in First-HD included the Hospital Anxiety and Depression Scale (HADS), the Columbia Suicide Severity Rating Scale (C-SSRS), the Swallowing Disturbance Questionnaire (SDQ), the Unified Parkinson's Disease Rating Scale (dysarthria item) (UPDRS [dysarthria]), the Barnes Akathisia Rating Scale (BARS), and the Epworth Sleepiness Scale (ESS). In addition, the UHDRS, which includes cognitive, behavioral, and functional measures, was performed at key visits.

[2H]C([2H])([2H])Oc1cc2c(cc1OC([2H])([2H])[2H])C1CC(=O)C(CC(C)C)CN1CC2 (stereo not drawn) [deutetrabenazine, (RR, SS)-1,3,4,6,7,11b-hexahydro-9,10-di(methoxy-d3)-3-(2-methylpropyl)-2H-benzo[a]quinolizin-2-one]
subjects much or very much improved according to PGIC and CGIC [1]: over 50% | peak concentration (Cmax) vs 50 mg of tetrabenazine [2]: lower peak concentration (Cmax) | systemic exposure (AUC) [2]: comparable systemic exposure (AUC) to 50 mg of tetrabenazine | deaths in the study [3]: no deaths
